Reference: ChEMBL document CHEMBL3351377, “Scaffold hopping towards potent and selective JAK3 inhibitors: discovery of novel C-5 substituted pyrrolopyrazines” (Bioorg Med Chem Lett, 2014)

Molecular target: Tyrosine-protein kinase JAK1 (Homo sapiens, UniProt P23458)

Row | IC50 [µM] | Compound
1 | 0.287 | CC[C@H](CO)Nc1ncc(-c2cnc3[nH]ccc3n2)c(N[C@H]2CCCN(S(C)(=O)=O)C2)n1
2 | 0.189 | CN1CCN(c2ncc(-c3cnc4[nH]ccc4n3)c(N[C@H]3CCCN(S(C)(=O)=O)C3)n2)CC1
